Some test systems named below: 786-0; A498; CCRF-CEM; EKVX; HCC 2998; HCT-15; HL-60; HOP-62; HT-29; K562; MCF7; MDA-MB-435; MDA-N; NCI-H522; NCI/ADR-RES; RXF 393; SNB-75; T47D; TK-10; UO-31.
Common to all, as to experiment: DTP human tumour cell line panel, 48 h

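Step 1: Grow cells in 96-well plates. Step 2: Expose to compound for 48 hours at 5 concentrations. Step 3: Interpolate endpoints linearly; if unreached, use highest concentration. At the GI50, growth is halved.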 Activity calls are given as the source filed them. Cut-off read from the data, not from the text of the source: active = GI50 up to about 1.1 µM and inactive = higher. A value given as a limit tells only on which side of the number the result lay.

As a reminder, the GI50 is the concentration at which growth is held to half of that of the control. Take `Cc1cnc2c(c1)C(=O)C1=C(C2=O)C2OC(=O)CC2OC1(C)C` (stereo not given): the GI50 in the assay on 786-0 is 0.258 µM (active); with A498, 1.83 µM (inactive); in the assay on CCRF-CEM, 0.0239 µM (active); with EKVX it was 0.209 µM (active); in the assay on HCC 2998, 0.248 µM (active); in the assay with HCT-15 it was 0.0643 µM. In addition, the GI50 in the assay with HL-60 was 0.0148 µM (active); with HOP-62, 1.18 µM (inactive); with HT-29, 0.0588 µM (active); in the assay with K562, 0.0209 µM (active); in the assay with MCF7, 0.0533 µM (active); in the assay on MDA-MB-435, 0.308 µM (active). The GI50 was 0.281 µM (active) in the assay on MDA-N; 0.0525 µM (active) with NCI-H522; 0.625 µM (active) in the assay with NCI/ADR-RES; 0.205 µM (active) in the assay with RXF 393; 1.69 µM (inactive) in the assay on SNB-75; 0.304 µM (active) with T47D. Moreover, the GI50 with TK-10 was 0.735 µM (active); in the assay with UO-31, 0.458 µM (active).

On to `CN(C)C(=S)/N=c1\ssc(=S)n1Cc1cccs1`, for which the GI50 is 3.83 µM (inactive) in the assay with 786-0; 4.13 µM (inactive) in the assay with A498; 6.46 µM (inactive) in the assay on CCRF-CEM; 26.2 µM (inactive) in the assay with EKVX; 6.7 µM (inactive) in the assay on HCC 2998; 2.84 µM in the assay with HCT-15. Besides, the GI50 in the assay with HL-60 is 2.44 µM (inactive); with HOP-62 it was 3.64 µM (inactive); with HT-29, 2.62 µM (inactive); in the assay on K562, 2.1 µM (inactive); in the assay on MCF7, 1.99 µM (inactive); in the assay on MDA-MB-435, 0.658 µM (active). The GI50 in the assay on MDA-N is 0.604 µM (active); with NCI-H522 it was 0.39 µM (active); with NCI/ADR-RES, 1.08 µM (active); with RXF 393, 2.19 µM (inactive); in the assay with SNB-75 it was 1.52 µM (inactive); with T47D, 8.51 µM (inactive). The GI50 is 8.24 µM (inactive) in the assay on TK-10 and 6.28 µM (inactive) in the assay with UO-31.

For `CS(=O)(=O)N1CC(CCl)c2ccc(NO)cc21` (stereo not given), the GI50 is 13.4 µM (inactive) in the assay with 786-0; 15.2 µM (inactive) in the assay with A498; 1.83 µM (inactive) in the assay with CCRF-CEM; 16.7 µM (inactive) with EKVX; 14.4 µM (inactive) in the assay on HCC 2998; 14.2 µM in the assay on HCT-15. Also, the GI50 in the assay on HL-60 is 1.96 µM (inactive); in the assay with HOP-62, 17.7 µM (inactive); with HT-29, 14.3 µM (inactive); in the assay with K562, 2.88 µM (inactive); in the assay on MCF7, 8.3 µM (inactive); in the assay on MDA-MB-435 it was 16.6 µM (inactive). Moreover, the GI50 is 16.9 µM (inactive) in the assay on MDA-N; 4.17 µM (inactive) in the assay on NCI-H522; 4.66 µM (inactive) in the assay on NCI/ADR-RES; 3.37 µM (inactive) in the assay on RXF 393; 1.77 µM (inactive) in the assay on SNB-75; 21.9 µM (inactive) in the assay with T47D. Moreover, the GI50 is 21.3 µM (inactive) in the assay with TK-10 and 10.3 µM (inactive) in the assay on UO-31.

In the case of `CC(=O)O[C@H]1CC(C)(C)C(=C=C/C(C)=C/C=C/C=C/C=C(C)/C=C2C=C(/C=C/[C@@]34O[C@]3(C)C[C@@H](O)CC4(C)C)C(=O)O/2)[C@](C)(O)C1`, the GI50 in the assay with 786-0 was 16 µM (inactive); in the assay on A498 it was 24.7 µM (inactive); in the assay with CCRF-CEM, 2.94 µM (inactive); in the assay on EKVX it was > 10 µM (inactive); in the assay on HCC 2998, 20.7 µM (inactive); with HCT-15, 11 µM. Also, the GI50 in the assay with HL-60 was 1.78 µM (inactive); in the assay on HOP-62, 13.3 µM (inactive); in the assay on HT-29 it was 21.2 µM (inactive); in the assay on K562, 10 µM (inactive); with MCF7, 3.81 µM (inactive); in the assay on MDA-MB-435, 14.8 µM (inactive). In addition, the GI50 with MDA-N is 12.7 µM (inactive); with NCI-H522, 3.99 µM (inactive); with NCI/ADR-RES it was 5.93 µM (inactive); in the assay on RXF 393 it was 4.01 µM (inactive); in the assay with SNB-75 it was 10 µM (inactive); with T47D, 4.27 µM (inactive). The values for the GI50 with TK-10 and in the assay with UO-31 were 0.959 µM (active) and 15.8 µM (inactive), respectively.

Turning to `Cn1c(=O)c2c(nc3n(CC(O)CCl)c(=O)ccn23)n(C)c1=O` (stereo not given), the GI50 with 786-0 was 26.4 µM (inactive); with A498, 54.5 µM (inactive); in the assay on CCRF-CEM, 5.19 µM (inactive); with EKVX it was 42.9 µM (inactive); in the assay with HCC 2998 it was 58.7 µM (inactive); in the assay with HCT-15, 34.9 µM. In addition, the GI50 was 15.5 µM (inactive) in the assay on HL-60; 46.9 µM (inactive) in the assay with HOP-62; 30.8 µM (inactive) in the assay with HT-29; 39.2 µM (inactive) in the assay with K562; 40.4 µM (inactive) in the assay with MCF7; 47.8 µM (inactive) in the assay on MDA-MB-435. For the same compound, the GI50 in the assay with MDA-N was 35.2 µM (inactive); with NCI-H522, 16.6 µM (inactive); in the assay with NCI/ADR-RES, 19.3 µM (inactive); in the assay on RXF 393, > 100 µM (inactive); in the assay with SNB-75 it was 29.1 µM (inactive); with T47D it was 35.7 µM (inactive). For the same compound, the values for the GI50 in the assay with TK-10 and in the assay with UO-31 were 89.3 µM (inactive) and 37.5 µM (inactive), respectively.

Take `O=C1NC(=O)C23C(=O)NC(=O)C12C1C=CC3CC1` (stereo not given): the GI50 with 786-0 is > 10 µM (inactive); in the assay with A498, > 10 µM (inactive); in the assay with CCRF-CEM, > 10 µM (inactive); in the assay on EKVX, > 10 µM (inactive); in the assay on HCC 2998 it was > 10 µM (inactive); in the assay on HCT-15, more than 10 µM. Besides, the GI50 in the assay on HL-60, in the assay with HOP-62, in the assay with HT-29, with K562, in the assay on MCF7 and in the assay with MDA-MB-435 was > 10 µM (inactive) in each case. For the same compound, the GI50 in the assay on MDA-N, with NCI-H522, in the assay on NCI/ADR-RES, in the assay on RXF 393, in the assay on SNB-75 and in the assay on T47D was > 10 µM (inactive) in each case. Besides, the GI50 in the assay on TK-10 and with UO-31 was > 10 µM (inactive) each time.

As for `CC(=O)c1c(C)cn(S(=O)(=O)NC(=O)Nc2nncs2)c1C`, the GI50 was > 100 µM (inactive) in the assay on 786-0; > 100 µM (inactive) in the assay with A498; 23.3 µM (inactive) in the assay with CCRF-CEM; > 100 µM (inactive) in the assay with EKVX; > 100 µM (inactive) in the assay on HCC 2998; more than 100 µM in the assay with HCT-15. In addition, the GI50 in the assay on HL-60, with HOP-62, in the assay with HT-29, in the assay with K562, in the assay on MCF7 and in the assay on MDA-MB-435 was > 100 µM (inactive) throughout. Moreover, the GI50 in the assay with MDA-N, in the assay on NCI-H522, with NCI/ADR-RES, with RXF 393, in the assay on SNB-75 and with T47D was > 100 µM (inactive) each time. Further, the GI50 in the assay on TK-10 is > 100 µM (inactive); in the assay on UO-31 it was 68.9 µM (inactive).

With `O=C([C@H](O)[C@@H](O)c1cccc(Cl)c1)C12CC3CC(CC(C3)C1)C2`, the GI50 in the assay with 786-0 is 1.05 µM (active); with A498, 2.31 µM (inactive); in the assay on CCRF-CEM, 1.14 µM (inactive); in the assay with EKVX it was 2.07 µM (inactive); in the assay with HCC 2998 it was 2.11 µM (inactive); in the assay with HCT-15 it was 2.24 µM. For the same compound, the concentration for 50% growth inhibition (GI50) with HL-60 was 0.483 µM (active); in the assay on HOP-62, 2.69 µM (inactive); in the assay with HT-29, 2.37 µM (inactive); in the assay with K562, 2.98 µM (inactive); with MCF7 it was 0.667 µM (active); in the assay on MDA-MB-435, 2.58 µM (inactive). Further, the GI50 in the assay on MDA-N was 1.93 µM (inactive); with NCI-H522 it was 2.23 µM (inactive); in the assay with NCI/ADR-RES, 2.27 µM (inactive); in the assay on RXF 393 it was 2.37 µM (inactive); in the assay with SNB-75, 1.72 µM (inactive); in the assay on T47D it was 2.16 µM (inactive). The GI50 in the assay with TK-10 was 1.98 µM (inactive); in the assay with UO-31, 1.9 µM (inactive).

As to `O=C(NCCc1ccccc1)c1cc(/C=C/c2cc(O)ccc2O)ccc1O`, the GI50 was 2.38 µM (inactive) with 786-0; 4.4 µM (inactive) in the assay on A498; 2.11 µM (inactive) in the assay with CCRF-CEM; 2.91 µM (inactive) in the assay on EKVX; 10.1 µM (inactive) with HCC 2998; 2.71 µM in the assay on HCT-15. The GI50 is 2.12 µM (inactive) in the assay with HL-60; 5.69 µM (inactive) in the assay with HOP-62; 18.3 µM (inactive) in the assay with HT-29; 2.59 µM (inactive) with K562; 2.62 µM (inactive) with MCF7; 3.96 µM (inactive) with MDA-MB-435. For the same compound, the GI50 was 2.96 µM (inactive) in the assay on MDA-N; 1.64 µM (inactive) in the assay on NCI-H522; 3.43 µM (inactive) with NCI/ADR-RES; 1.93 µM (inactive) with RXF 393; 5.57 µM (inactive) in the assay on SNB-75; 1.92 µM (inactive) with T47D. For the same compound, the figures for the GI50 in the assay with TK-10 and in the assay with UO-31 were 2.93 µM (inactive) and 1.7 µM (inactive), respectively.

In the case of `COc1cccc(/N=C/c2cc(OC)c(OC)c(OC)c2)c1`, the GI50 in the assay on 786-0 is > 100 µM (inactive); with A498, > 100 µM (inactive); with CCRF-CEM, > 100 µM (inactive); with EKVX, > 86.7 µM (inactive); with HCC 2998 it was > 88.9 µM (inactive); in the assay on HCT-15, 56.1 µM. Besides, the GI50 is > 100 µM (inactive) in the assay on HL-60; 94 µM (inactive) in the assay on HOP-62; 91.2 µM (inactive) in the assay on HT-29; 3.58 µM (inactive) with K562; 56.9 µM (inactive) in the assay with MCF7; 18.8 µM (inactive) in the assay with MDA-MB-435. Further, the GI50 with MDA-N is 25.8 µM (inactive); with NCI-H522 it was > 100 µM (inactive); with NCI/ADR-RES, > 100 µM (inactive); in the assay on RXF 393 it was 78.7 µM (inactive); in the assay with SNB-75, > 100 µM (inactive); in the assay with T47D, 64.3 µM (inactive). The GI50 in the assay on TK-10 is > 100 µM (inactive); in the assay with UO-31, > 23 µM (inactive).

Source of the values: ChEMBL document CHEMBL1201862, “PubChem BioAssay data set” (2004).
